Laboratory results: US10131652B2, “Pyrimidinyloxy benzene derivatives as herbicides” (E. I. DU PONT DE NEMOURS AND COMPANY, priority 2014, dated 2018)
Like-named read-outs stand apart in the source and are kept apart here.

Tests used:
Type in all cases: in vivo
[1] = tested on: ducksalad (Heteranthera limosa); assay: Test C flooded paddy test plant response; conditions: Flood, 250 g ai/ha, scale of 0 to 100 where 0 is no effect and 100 is complete control, 13 to 15 days
Summary of the method: (§1)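 Readout is a visual 0–100 score (100 = complete control) versus controls at 13–15 days. Plants at 2-leaf stage, flooded to 3 cm, treated through paddy water.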

[2] = tested on: barnyardgrass (Echinochloa crus-galli); assay: Test C flooded paddy test plant response; conditions: Flood, 250 g ai/ha, scale of 0 to 100 where 0 is no effect and 100 is complete control, 13 to 15 days
Summary of the method: as §1

[3] = tested on: small-flower umbrella sedge (Cyperus difformis); assay: Test C flooded paddy test plant response; conditions: Flood, 250 g ai/ha, scale of 0 to 100 where 0 is no effect and 100 is complete control, 13 to 15 days
Summary of the method: as §1

rice (Oryza sativa) = assay: Test C flooded paddy test plant response; conditions: Flood, 250 g ai/ha, scale of 0 to 100 where 0 is no effect and 100 is complete control, 13 to 15 days
Summary of the method: as §1

[4] = tested on: giant foxtail (Setaria faberii); assay: Test B pre-/postemergence plant response; conditions: for pest or weed control at 1000 g/ha: Setaria faberi, 240 h, 1000 g ai/ha, read-out: Plant response rating, Foxtail, Giant
Summary of the method: (§2)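 Steps: plant seeds in loam soil–sand mix; spray soil preemergence, and in parallel spray 2–10 cm one- to two-leaf plants postemergence; hold ~10 days in greenhouse; visually rate injury against untreated controls (0 = no effect, 100 = complete control).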

[5] = tested on: ragweed (common ragweed, Ambrosia elatior); assay: Test B pre-/postemergence plant response
Summary of the method: as §2

corn (Zea mays) = assay: Test B pre-/postemergence plant response
Summary of the method: as §2

[6] = tested on: barnyardgrass (Echinochloa crus-galli); assay: Test B pre-/postemergence plant response; conditions: for pest or weed control at 1000 g/ha: Echinochloa crus-galli, 240 h, 1000 g ai/ha, read-out: Plant response rating, Barnyardgrass
Summary of the method: as §2

[7] = tested on: wheat (Triticum aestivum); assay: Test B pre-/postemergence plant response
Summary of the method: as §2

[8] = tested on: pigweed (Amaranthus retroflexus); assay: Test B pre-/postemergence plant response; conditions: for pest or weed control at 1000 g/ha: Amaranthus retroflexus, 240 h, 1000 g ai/ha, read-out: Plant response rating, Pigweed
Summary of the method: as §2

[9] = tested on: Italian ryegrass (Lolium multiflorum); assay: Test B pre-/postemergence plant response
Summary of the method: as §2

kochia (Kochia scoparia) [10] = assay: Test B pre-/postemergence plant response
Summary of the method: as §2

[11] = tested on: blackgrass (Alopecurus myosuroides); assay: Test B postemergence plant response
Summary of the method: (§3)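 Visual injury rating, 0–100 (0 = no effect, 100 = complete control), vs untreated controls ~10 days after postemergence spray; greenhouse; potted loam soil/sand; plants 2–10 cm, 1–2 leaf stage.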

[12] = tested on: galium (catchweed bedstraw, Galium aparine); assay: Test B postemergence plant response
Summary of the method: as §3

wild oat (Avena fatua) = assay: Test D postemergence plant response
Summary of the method: (§4)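 The formulated test chemicals were applied over the foliage of young potted plants (2 to 18 cm tall), which were then held under greenhouse conditions. Between days 13 and 15 each species was rated by eye versus controls, from 0 for no effect up to 100 for complete control.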

[13] = tested on: chickweed (common chickweed, Stellaria media); assay: Test D postemergence plant response
Summary of the method: as §4

kochia (Kochia scoparia) [14] = assay: Test D postemergence plant response
Summary of the method: as §4

[15] = post-emergence, Postemergence, 0 to 100 scale (0 no effect, 100 complete control)
[16] = pre-emergence, Preemergence, 0 to 100 scale (0 no effect, 100 complete control)
[17] = Postemergence, 1000 g ai/ha, 0 to 100 scale (0 no effect, 100 complete control)
[18] = Preemergence, 1000 g ai/ha, 0 to 100 scale (0 no effect, 100 complete control)
[19] = 125 g ai/ha, postemergence, 0 to 100 scale, 0 no effect, 100 complete control
[20] = Postemergence, 500 g ai/ha, 0 to 100 scale (0 no effect, 100 complete control)
[21] = Preemergence, 125 g ai/ha, 0 to 100 scale (0 no effect, 100 complete control)
[22] = Preemergence, 500 g ai/ha, 0 to 100 scale where 0 is no effect and 100 is complete control
[23] = 31 g ai/ha, scale 0 to 100 (0 no effect, 100 complete control)
[24] = 62 g ai/ha, scale 0 to 100, 0 no effect, 100 complete control
[25] = 125 g ai/ha, scale 0 to 100, 0 no effect, 100 complete control

SMILES: Fc1cccc(Oc2ncc(Cl)cn2)c1-c1cc(C(F)F)on1 [Compound 55, 5-chloro-2-[2-[5-(difluoromethyl)-3-isoxazolyl]-3-fluorophenoxy]pyrimidine]
- pest or weed control at 250 g/ha ([1]; Heteranthera limosa, read-out: Ducksalad plant response rating): 100%
- pest or weed control at 250 g/ha ([2]; Echinochloa crus-galli, read-out: Barnyardgrass plant response rating): 25%
- pest or weed control at 250 g/ha ([3]; Cyperus difformis, read-out: Sedge, Umbrella plant response rating): 90%
- plant injury at 250 g/ha (rice (Oryza sativa); Oryza sativa, read-out: Rice plant response rating): 25%
- pest or weed control at 1000 g/ha [4, 15]: 100%
- pest or weed control at 1000 g/ha [4, 16]: 100%
- Plant response rating, Ragweed [5, 17]: 100
- Plant response rating, Ragweed [5, 18]: 100
- Corn plant response rating (crop injury, 0 = no effect, 100 = complete kill) at 1000 g/ha (corn (Zea mays); Zea mays, post-emergence, 240 h, Postemergence, 1000 g ai/ha, 0 to 100 scale (0 no effect, 100 complete control)): 100%
- pest or weed control at 1000 g/ha [6, 15]: 100%
- pest or weed control at 1000 g/ha [6, 16]: 100%
- plant injury at 1000 g/ha ([7]; Triticum aestivum, post-emergence, 240 h, Postemergence, 1000 g ai/ha, 0 to 100 scale (0 no effect, 100 complete control), read-out: Plant response rating, Wheat): 100%
- pest or weed control at 1000 g/ha [8, 15]: 100%
- pest or weed control at 1000 g/ha [8, 16]: 100%
- Plant response rating, Ryegrass, Italian [9, 17]: 100
- Plant response rating, Ryegrass, Italian [9, 18]: 100
- Plant response rating, Kochia (kochia (Kochia scoparia) [10]; [17]): 100
- Plant response rating, Kochia (kochia (Kochia scoparia) [10]; [18]): 100
- Plant response rating, Blackgrass [11, 17]: 100
- Plant response rating, Galium [12, 17]: 100
- pest or weed control at 16 g/ha (wild oat (Avena fatua); Avena fatua, post-emergence, 16 g ai/ha, scale 0 to 100 (0 no effect, 100 complete control), read-out: Oat, Wild plant response rating): 5%
- pest or weed control at 31 g/ha (wild oat (Avena fatua); Avena fatua, post-emergence, 31 g ai/ha, scale 0 to 100 (0 no effect, 100 complete control), read-out: Oat, Wild plant response rating): 15%
- pest or weed control at 62 g/ha (wild oat (Avena fatua); Avena fatua, post-emergence, 62 g ai/ha, scale 0 to 100, 0 no effect, 100 complete control, read-out: Plant response rating, Oat, Wild): 40%
- pest or weed control at 125 g/ha (wild oat (Avena fatua); Avena fatua, post-emergence, 125 g ai/ha, scale 0 to 100, 0 no effect, 100 complete control, read-out: Plant response rating, Oat, Wild): 40%
- pest or weed control at 16 g/ha ([13]; Stellaria media, post-emergence, 16 g ai/ha, scale 0 to 100 (0 no effect, 100 complete control), read-out: Chickweed plant response rating): 70%
- pest or weed control at 31 g/ha ([13]; Stellaria media, post-emergence, 31 g ai/ha, scale 0 to 100 (0 no effect, 100 complete control), read-out: Chickweed plant response rating): 75%
- pest or weed control at 62 g/ha ([13]; Stellaria media, post-emergence, 62 g ai/ha, scale 0 to 100, 0 no effect, 100 complete control, read-out: Plant response rating, Chickweed): 98%
- pest or weed control at 125 g/ha ([13]; Stellaria media, post-emergence, 125 g ai/ha, scale 0 to 100, 0 no effect, 100 complete control, read-out: Plant response rating, Chickweed): 100%
- pest or weed control at 16 g/ha (kochia (Kochia scoparia) [14]; Bassia scoparia, post-emergence, 16 g ai/ha, scale 0 to 100 (0 no effect, 100 complete control), read-out: Kochia plant response rating): 98%
- pest or weed control at 31 g/ha (kochia (Kochia scoparia) [14]; Bassia scoparia, post-emergence, 31 g ai/ha, scale 0 to 100 (0 no effect, 100 complete control), read-out: Kochia plant response rating): 100%
- pest or weed control at 62 g/ha (kochia (Kochia scoparia) [14]; Bassia scoparia, post-emergence, 62 g ai/ha, scale 0 to 100, 0 no effect, 100 complete control, read-out: Plant response rating, Kochia): 100%
- pest or weed control at 125 g/ha (kochia (Kochia scoparia) [14]; Bassia scoparia, post-emergence, 125 g ai/ha, scale 0 to 100, 0 no effect, 100 complete control, read-out: Plant response rating, Kochia): 100%

SMILES: Clc1cnc(Oc2ccccc2-c2ccon2)nc1 [Compound 185]
- Ducksalad plant response rating [1]: 0
- Barnyardgrass plant response rating [2]: 0
- Sedge, Umbrella plant response rating [3]: 0
- Rice plant response rating (rice (Oryza sativa)): 0
- Plant response rating, Foxtail, Giant [4, 19]: 10
- Plant response rating, Foxtail, Giant [4, 20]: 70
- Foxtail, Giant plant response rating [4, 21]: 30
- Plant response rating, Foxtail, Giant [4, 22]: 90
- Plant response rating, Ragweed [5, 19]: 70
- Plant response rating, Ragweed [5, 20]: 100
- Ragweed plant response rating [5, 21]: 10
- Plant response rating, Ragweed [5, 22]: 90
- Plant response rating, Corn (corn (Zea mays); [19]): 0
- Plant response rating, Corn (corn (Zea mays); [20]): 10
- Plant response rating, Barnyardgrass [6, 19]: 10
- Plant response rating, Barnyardgrass [6, 20]: 40
- Barnyardgrass plant response rating [6, 21]: 20
- Plant response rating, Barnyardgrass [6, 22]: 70
- Plant response rating, Wheat [7, 19]: 0
- Plant response rating, Wheat [7, 20]: 0
- Plant response rating, Pigweed [8, 19]: 90
- Plant response rating, Pigweed [8, 20]: 100
- Pigweed plant response rating [8, 21]: 90
- Plant response rating, Pigweed [8, 22]: 100
- Plant response rating, Ryegrass, Italian [9, 19]: 0
- Plant response rating, Ryegrass, Italian [9, 20]: 0
- Ryegrass, Italian plant response rating [9, 21]: 0
- Plant response rating, Ryegrass, Italian [9, 22]: 0
- Plant response rating, Kochia (kochia (Kochia scoparia) [10]; [19]): 90
- Plant response rating, Kochia (kochia (Kochia scoparia) [10]; [20]): 100
- Kochia plant response rating (kochia (Kochia scoparia) [10]; [21]): 40
- Plant response rating, Kochia (kochia (Kochia scoparia) [10]; [22]): 100
- Plant response rating, Blackgrass [11, 19]: 0
- Plant response rating, Blackgrass [11, 20]: 50
- Plant response rating, Galium [12, 19]: 40
- Plant response rating, Galium [12, 20]: 70
- Plant response rating (scale 0 to 100), Oat, Wild (wild oat (Avena fatua); 16 g ai/ha): 0
- Oat, Wild plant response rating (wild oat (Avena fatua); [23]): 0
- Oat, Wild plant response rating (wild oat (Avena fatua); [24]): 0
- Plant response rating, Oat, Wild (wild oat (Avena fatua); [25]): 5
- Plant response rating (scale 0 to 100), Chickweed ([13]; 16 g ai/ha): 0
- Chickweed plant response rating [13, 23]: 0
- Plant response rating, Chickweed [13, 24]: 5
- Plant response rating, Chickweed [13, 25]: 5
- Plant response rating (scale 0 to 100), Kochia (kochia (Kochia scoparia) [14]; 16 g ai/ha): 0
- Kochia plant response rating (kochia (Kochia scoparia) [14]; [23]): 0
- Plant response rating, Kochia (kochia (Kochia scoparia) [14]; [24]): 5
- Plant response rating, Kochia (kochia (Kochia scoparia) [14]; [25]): 30
